Legend:
[1] = test system: STAT3; test: Immunoblot of pSTAT3 with pharmacologic inhibitors, mouse CD8^+ T cells; format: cell-based; conditions: PP2 (1 nM); 1 h
Experimental: (§1) FIG. 23: Elevated STAT3 phosphorylation resulting from CD80 binding-mediated CD28 activation via the tyrosine kinase Lck/JAK/STAT3 signaling pathway. The effect of CD28 activation and treatment with pharmacologic inhibitors on the expression of pSTAT, total STAT, and b-actin according to immunoblot assay. Mouse and human CD8^+ T cells were stimulated with anti-CD3 microbeads and treated with ctrl Fc or CD80-Fc in the presence or absence of the pharmacologic inhibitor JSI-124 […], PP2 (1 nM), or AG-490 ([…]) for 24 h. Vehicle control is included. The intensity quantification shown ([…]/intensity of β-actin) represents the mean intensity from three repeated experiments.
(§2) Because NKG2D expression on NK cells is regulated by pSTAT3, the next question was whether pSTAT3 expression is induced in CD8^+ T cells by activation of CD28. To address this question, the pSTAT3 expression was measured in both mouse and human CD8^+ T cells after incubation with control IgG or CD80-Fc for 15 and 30 min, as well as 1 and 2 h via intracellular flow cytometric staining. […] Given that CD28 activation in CD8^+ T cells results in STAT3 phosphorylation, it was sought to determine how CD28 activates JAK/STAT3 signaling in CD8^+ T cells. In these cells, the co-stimulatory receptor CD28 strengthens TCR signaling via sustained activation of the tyrosine kinase Lck which in turn recruits and activates ZAP70. […] Thus a pharmacologic model was established to determine whether Lck/ZAP70, as an upstream kinase cascade, activates STAT3 in CD8^+ T cells. Mouse and human CD8^+ T cells were enriched (FIG. 29) and stimulated with anti-CD3 microbeads and incubated with control IgG or CD80-Fc in the presence or absence of the pharmacologic inhibitor PP2, AG-490, or JSI-124 for 1 h. PP2 was employed because it is a specific Src-family kinase inhibitor sensitive to blockade of Lck activation. Also, AG-490 can inhibit activation of JAK/STAT3 signaling. […] To validate the crucial role of pSTAT3, the expression of pSTAT1 and pSTAT5 was also assessed. […]

[2] = test system: Lck/JAK/STAT3 signaling; test: NKG2D expression with CD80-Fc plus inhibitors of STAT3 activation, human CD8^+ T cells; format: cell-based; conditions: 24 h
Experimental: (§3) FIGS. 24A-24B: Blockade of Lck/JAK/STAT3 signaling abolishes CD28 activation-mediated induction of NKG2D expression on mouse and human CD8^+ T cells. (A, B) Mouse (A) and human (B) CD8^+ T cells were stimulated with anti-CD3 microbeads and treated with control Fc or CD80-FC in the presence or absence of the pharmacologic inhibitor JSI-124, PP2, or AG-490 for 24 h. The CD80+ vehicle has the highest expression of NKG2D. NKG2D expression on the surface of CD8^+ T cells was measured using flow cytometry. The bar graphs show the median (±SEM) MFI of NKG2D (n=3). The data are representative of three repeated experiments.
(§4) If NKG2D expression is induced by CD80-Fc-based treatment via pSTAT3, inhibition of any upstream activators of STAT3 should abrogate NKG2D induction. A time course study was performed to assess the toxicity of the pharmacologic inhibitors to mouse and human CD8^+ T cells. […] Therefore, to test the hypothesis, mouse and human CD8^+ T cells were enriched and treated with control Fc, CD80-Fc plus control vehicle, or CD80-Fc plus inhibitors of STAT3 activation, including PP2, AG490, and JSI-124, for 24 h.

[3] = test system: STAT3; test: Immunoblot of pSTAT3 with pharmacologic inhibitors, human CD8^+ T cells; format: cell-based; conditions: PP2 (1 nM); 1 h
Experimental: as §1, §2

[4] = test system: Lck/JAK/STAT3 signaling; test: NKG2D expression with CD80-Fc plus inhibitors of STAT3 activation, mouse CD8^+ T cells; format: cell-based; conditions: 24 h
Experimental: as §3, §4

[5] = test system: mouse CD8^+ T cells; test: CD8^+ T cell viability after JSI-124 (7-AAD), mouse; format: cell-based; conditions: 48 h, JSI-124 0.1 μM, versus vehicle control
Experimental: (§5) FIGS. 30A-30B: CD8^+ T cell viability after JSI-124 treatment. Freshly enriched mouse (A) and human (B) CD8^+ T cells were treated with vehicle control or JSI-124 (0.1 μM) for 1, 2, 3, and 4 days. Cell viability was assessed after 7-AAD staining via flow cytometry.
as §4

[6] = test system: LLC cells; test: Cytotoxic T-lymphocyte assay against CFSE-labeled LLC cells; format: cell-based, mouse; conditions: E:T 5:1, 10:1, 25:1, 5 h
Experimental: FIGS. 25A-25D: Augmentation of CD8^+ T-cell antitumor cytolytic activity by treatment with CD80-Fc. (A-C) Induction of antitumor cytolytic activity by mouse CD8^+ T cells after exposure to Rae-1^+ LLC cells. Splenocytes were collected from LLC-bearing mice on day 14 after tumor-cell inoculation. CD8^+ T cells were isolated from splenocytes and treated with control Fc or CD80-Fc in the presence or absence of an anti-NKG2D antibody or JSI-124 for 24 h. (A) CD8^+ T cells were co-incubated with CFSE-labeled LLC cells at a ratio of 25:1 (E:T) for 5 h. The cell culture medium was subjected to ELISA analysis of perforin. The bar graphs show the median (±SEM) normalized concentration of perforin (n=3). (B) Flow cytometry analysis of NKG2D ligand Rae-1 expression on LLC tumor cells. (C) CD8^+ T cells were co-incubated with CFSE-labeled LLC cells at ratios of 5:1, 10:1, and 25:1 (E:T) for 5 h. […] Survival of the target cells was measured as the percentage of normalized target cells that remained after incubation with CD8^+ T cells. […]
Because increased perforin expression by immune cells often indicates enhanced antitumor cytolytic activity, the cytotoxic T-lymphocyte activity of mouse CD8^+ T cells was measured after CD80-Fc-based treatment. […] The survival of target cells was determined as the percentage of normalized target cells that remained after incubation with CD8^+ T cells. […]

[7] = test system: human CD8^+ T cells; test: CD8^+ T cell viability after JSI-124 (7-AAD), human; format: cell-based; conditions: 48 h, JSI-124 0.1 μM, versus vehicle control
Experimental: as §5, §4

[8] = Degranulation assay (CD107a), human CD8^+ T cells exposed to K562 cells; format: cell-based; conditions: 24 h treatment
Experimental: (§6) FIGS. 25A-25D: Augmentation of CD8^+ T-cell antitumor cytolytic activity by treatment with CD80-Fc. (A-C) Induction of antitumor cytolytic activity by mouse CD8^+ T cells after exposure to Rae-1^+ LLC cells. Splenocytes were collected from LLC-bearing mice on day 14 after tumor-cell inoculation. CD8^+ T cells were isolated from splenocytes and treated with control Fc or CD80-Fc in the presence or absence of an anti-NKG2D antibody or JSI-124 for 24 h. (A) CD8^+ T cells were co-incubated with CFSE-labeled LLC cells at a ratio of 25:1 (E:T) for 5 h. The cell culture medium was subjected to ELISA analysis of perforin. The bar graphs show the median (±SEM) normalized concentration of perforin (n=3). (B) Flow cytometry analysis of NKG2D ligand Rae-1 expression on LLC tumor cells. (C) CD8^+ T cells were co-incubated with CFSE-labeled LLC cells at ratios of 5:1, 10:1, and 25:1 (E:T) for 5 h. After incubation, the cells were stained with PI (1 mg/mL). […] Survival of the target cells was measured as the percentage of normalized target cells that remained after incubation with CD8^+ T cells. […]
(§7) In a similar manner, the cytolytic activity of human CD8^+ T cells was assessed in terms of their degranulation upon CD28 activation. The ability of CD8^+ T cells to undergo degranulation was evaluated in response to exposure to target tumor cells by the induction of cell surface marker CD107a. […]

[9] = test system: K562 cells; test: as above; format: cell-based; conditions: after exposure to target cells, ratio 1:1, 4 h
Experimental: as §6, §7

Row | Structure (SMILES) | phosphorylation of STAT3 in response to CD80-Fc [1] | NKG2D expression on CD8^+ T cells [2] | phosphorylation of STAT3 in response to CD80-Fc [3] | NKG2D expression on CD8^+ T cells [4] | cell viability [5] | cytolytic activity against LLC cells [6] | cell viability [7] | NKG2D expression [8] | degranulation (CD107a) [9]
1 | N#C/C(=C/c1ccc(O)c(O)c1)C(=O)NCc1ccccc1 [AG-490] | completed abolished | dramatic decreases | completed abolished | dramatic decreases | – | – | – | – | –
2 | CC(C)(O)/C=C/C(=O)[C@](C)(O)[C@H]1[C@H](O)C[C@@]2(C)[C@@H]3CC=C4[C@@H](C=C(O)C(=O)C4(C)C)[C@]3(C)C(=O)C[C@]12C [JSI-124] | completed abolished | dramatic decreases | completed abolished | dramatic decreases | markedly decreased | impaired the cytolytic activity | markedly decreased | abolished NKG2D expression | reduced degranulation
3 | CC(C)(C)n1nc(-c2ccc(Cl)cc2)c2c(N)ncnc21 [PP2] | completed abolished | dramatic decreases | completed abolished | dramatic decreases | – | – | – | – | –
